Test results published in US8598339B2, “Withanolide isolated from Physalis longifolia and analogs and methods of use thereof” (University of Kansas, priority 2011, dated 2013).

Columns and labels:
MCF-7 = assay: MTS assay, MCF-7; type: cell-based
Experimental: (§1) Cell proliferation was analyzed using MTS assay.

ER+ MCF-7 cells = assay: Cell cycle analysis, MCF-7; type: cell-based; settings: 1-2 μM; 24-hour treatment
[1] = In vitro metabolism, human liver microsomes; type: in vitro ADME; settings: 1.0E-06 M
Experimental: (§2) The in vitro metabolism of […], as compared to known reference compounds, was analyzed using liver microsomes from human, dog (Beagle), rat (Sprague-Dawley) and mouse (CD-1). […] Results are from two independent tests.

MCF-7 cells = assay: Annexin V-FITC/Propidium Iodide apoptosis, MCF-7; type: cell-based; settings: 1-4 μM, 24 and 48 hours
Description: Therefore, this cell line was not very sensitive to X001 in this assay.

[2] = In vitro metabolism, dog liver microsomes; type: in vitro ADME, dog (Beagle); settings: 1.0E-06 M
Experimental: as §2

MDA-MB-231 = assay: MTS assay, MDA-MB-231; type: cell-based
Experimental: as §1

BT20 cells [3] = assay: Clonogenic assay, BT20; type: cell-based; settings: 1-2 μM; treated 24 hours, cultured two weeks
Ames test strain TA100 = assay: Ames test, TA100
[4] = system: Salmonella typhimurium TA1535; assay: Cytotoxicity in tester strain TA1535 without S9; type: cell-based
HMLEC = assay: MTS assay, HMLEC; type: cell-based; settings: HMLEC (normal)
Experimental: as §1

Ames test strain TA1535 = assay: Ames test, TA1535
[5] = system: Salmonella typhimurium TA100; assay: Cytotoxicity in tester strain TA100 without S9; type: cell-based
MRC5 = assay: MTS assay, MRC5; type: cell-based; settings: MRC5 (normal)
Experimental: as §1

HCC1937 cells = assay: Clonogenic assay, HCC1937; type: cell-based; settings: 1-2 μM; treated 24 hours, cultured two weeks
[6] = system: TT medullary thyroid cancer cells; assay: MTS cell viability assay, TT; type: cell-based; settings: Table 1, 72-hour treatment
Experimental: Human carcinoid cells, NCI-H727 (ATCC, Manassas, Va.), were cultured under standard conditions. Squamous cell carcinoma of head and neck cells, MDA1986 (Myers, et al. (2002) Clin. Cancer Res. 8:293) and JMAR (Swan, et al. (2003) Oral Oncol. 39:648-55); and melanoma cells lines B16F10 (ATCC, Manassas, Va.) and SKMEL28 (CLS, Eppelheim, Germany) were cultured in DMEM medium supplemented with 10% heat-inactivated fetal bovine serum (Sigma-Aldrich, St. Louis, Mo.), 1×MEM-essential amino acid, 1×MEM vitamin, and penicillin/streptomycin (Sigma-Aldrich, St. Louis, Mo.) in a humid environment of 5% CO2 at 37° C. Activity of withanolides against DRO81-1 and TT medullary thyroid cancer cells was also determined.
Cells were cultured in 96 well plates at a concentration of 1-2×10^4 cells/mL. Cell viability was assessed with the nonradioactive cell proliferation MTS assay using Cell Titer 96AQUEOUS One Solution Reagent (PROMEGA, Madison, Wis.), according to the manufacturer's instruction. After a 72-hour treatment, 20 μL of Cell Titer 96AQUEOUS One Solution Reagent were added to each well and incubated for 3 hours at 37° C. 5% CO2, and formazan absorbance was measured at 490 nm.

BT20 cells [7] = assay: Cell cycle analysis, BT20; type: cell-based; settings: 2 μM; 24-hour treatment
[8] = In vitro metabolism, mouse liver microsomes; type: in vitro ADME, mouse (CD-1); settings: 1.0E-06 M
Experimental: as §2

[9] = system: HSF1, Hsp70 and Hsp40 mRNA; assay: HSF1, Hsp70 and Hsp40 mRNA levels; type: cell-based; settings: Control 1.0
Experimental: Levels of HSF1, Hsp70 and Hsp40 mRNA were also determined in response to treatment with SX002 or X003 for 8 or 16 hours.

[10] = system: Hs766T pancreatic cancer cells; assay: Co-treatment with carfilzomib, apoptosis, Hs766T; type: cell-based; settings: 0.1, 0.2 or 0.3 μM X003 with carfilzomib (10 nM)
Experimental: To determine whether the instant withanolides could be used in combination with other treatment regimes, Hs766T pancreatic cancer cells were either treated with 0.1, 0.2 or 0.3 μM X003; 10 or 20 nM carfilzomib; or co-treated with carfilzomib (10 nM) and either 0.1, 0.2 or 0.3 μM X003.

NCI-H727 cells = assay: PARP cleavage and caspase 3 activation, NCI-H727; type: cell-based; settings: 1 μM
Experimental: In similar analysis with X003, 50% of UMSCC-2 HNSCC cells underwent apoptosis (early and late) at 1 μM, while 90% of cells underwent apoptosis at 3 μM. Apoptosis with 1 μM X003 was confirmed with PARP cleavage and caspase 3 activation in NCI-H727 cells.

[11] = system: hsf1 and client proteins of Hsp90 in MIA PaCa-2 cells; assay: Western blot, MIA PaCa-2; type: cell-based

What does the source list for `CC1=C(CO)C(=O)O[C@@H]([C@@H](C)C2CC[C@H]3[C@@H]4C[C@H]5O[C@]56[C@@H](O)C=CC(=O)[C@]6(CO)[C@H]4CC[C@]23C)C1` (stereo partly drawn) [Compound X001]?
Log ECF (MCF-7): 1.88; cell cycle effect (ER+ MCF-7 cells): G2/M cell cycle arrest; Mean % Parent Compound Remaining [1]: 27%; induction of apoptosis (MCF-7 cells): did not induce apoptosis; Mean % Parent Compound Remaining [2]: 28%; Log ECF (MDA-MB-231): 1.25; colony formation (BT20 cells [3]): not as potent; Positive Significance (− to +++) (Ames test strain TA100; 1.0E−04 M, TA100 +S9): −; Positive Significance (− to +++) (Ames test strain TA100; 1.0E−04 M, TA100 −S9): −; Positive Significance (− to +++) (Ames test strain TA100; 1.0E−05 M, TA100 +S9): −; Positive Significance (− to +++) (Ames test strain TA100; 1.0E−05 M, TA100 −S9): −; Positive Significance (− to +++) (Ames test strain TA100; 5.0E−05 M, TA100 +S9): −; Positive Significance (− to +++) (Ames test strain TA100; 5.0E−05 M, TA100 −S9): −; Positive Significance (− to +++) (Ames test strain TA100; 5.0E−06 M, TA100 +S9): −; Positive Significance (− to +++) (Ames test strain TA100; 5.0E−06 M, TA100 −S9): −; Cytotoxicity (% of Control) ([4]; 1.0E−04 M): 111 % of Control; Cytotoxicity (% of Control) ([4]; 1.0E−05 M): 97 % of Control; Cytotoxicity (% of Control) ([4]; 1.3E−06 M): 99 % of Control; Cytotoxicity (% of Control) ([4]; 2.5E−05 M): 100 % of Control; Cytotoxicity (% of Control) ([4]; 2.5E−06 M): 97 % of Control; Cytotoxicity (% of Control) ([4]; 5.0E−05 M): 109 % of Control; Cytotoxicity (% of Control) ([4]; 5.0E−06 M): 98 % of Control; Cytotoxicity (% of Control) ([4]; 6.3E−07 M): 99 % of Control; Log ECF (HMLEC): 2.54; Positive Significance (− to +++) (Ames test strain TA1535; 1.0E−04 M, TA1535 +S9): −; Positive Significance (− to +++) (Ames test strain TA1535; 1.0E−04 M, TA1535 −S9): −; Positive Significance (− to +++) (Ames test strain TA1535; 1.0E−05 M, TA1535 +S9): −; Positive Significance (− to +++) (Ames test strain TA1535; 1.0E−05 M, TA1535 −S9): −; Positive Significance (− to +++) (Ames test strain TA1535; 5.0E−05 M, TA1535 +S9): −; Positive Significance (− to +++) (Ames test strain TA1535; 5.0E−05 M, TA1535 −S9): −; Positive Significance (− to +++) (Ames test strain TA1535; 5.0E−06 M, TA1535 +S9): −; Positive Significance (− to +++) (Ames test strain TA1535; 5.0E−06 M, TA1535 −S9): −; Cytotoxicity (% of Control) ([5]; 1.0E−04 M): 107 % of Control; Cytotoxicity (% of Control) ([5]; 1.0E−05 M): 101 % of Control; Cytotoxicity (% of Control) ([5]; 1.3E−06 M): 96 % of Control; Cytotoxicity (% of Control) ([5]; 2.5E−05 M): 93 % of Control; Cytotoxicity (% of Control) ([5]; 2.5E−06 M): 101 % of Control; Cytotoxicity (% of Control) ([5]; 5.0E−05 M): 101 % of Control; Cytotoxicity (% of Control) ([5]; 5.0E−06 M): 103 % of Control; Cytotoxicity (% of Control) ([5]; 6.3E−07 M): 99 % of Control; Log ECF (MRC5): 4.59; colony formation (HCC1937 cells): strongly inhibited; IC50 [6]: 1910 nM; cell cycle effect (BT20 cells [7]): G2/M arrest; Mean % Parent Compound Remaining [8]: 29%

For `CC(=O)OCC1=C(C)C[C@H]([C@@H](C)C2CC[C@H]3[C@@H]4C[C@H]5O[C@]56[C@@H](OC(C)=O)C=CC(=O)[C@]6(COC(C)=O)[C@H]4CC[C@]23C)OC1=O` (stereo partly drawn) [Compound X003, 4,19,27-triacetyl X001], which “HSF1 mRNA level” value ([9]; 8 hours) is on record?
The value was 1.2.

What about the “HSP40 mRNA level” value ([9]; 8 hours) of the same compound?
The value was 8.3.

What about the “HSP70 mRNA level” value ([9]; 8 hours) of the same compound?
The value was 30.8.

What about the “HSF1 mRNA level” value ([9]; 16 hours) of the same compound?
Its value is 1.1.

And the “HSP40 mRNA level” value ([9]; 16 hours)?
Its value is 14.2.

And the “HSP70 mRNA level” value ([9]; 16 hours)?
Its value is 183.1.

And the “apoptosis on co-treatment with carfilzomib” value [10]?
Its value is “enhances”.

What about the “apoptosis by PARP cleavage and caspase 3 activation” value (NCI-H727 cells) of the same compound?
The value was “confirmed”.

What about the “stress and client protein response (western blot)” value [11] of the same compound?
Its value is “induced oxidative and proteotoxic stress, while depleting hsf1 and client proteins of Hsp90”.
